ChEMBL document CHEMBL4049435, “Development of a Series of Kynurenine 3-Monooxygenase Inhibitors Leading to a Clinical Candidate for the Treatment of Acute Pancreatitis” (J Med Chem, 2017)
pIC50, pKi: −log10 of the molar value. Activity calls are given as the source filed them. The rule behind the calls is not given here.

Key:
[1] = target: T1, Kynurenine 3-monooxygenase (Homo sapiens, UniProt O15229)
Target sequence in this assay (O15229 whole entry, looked up): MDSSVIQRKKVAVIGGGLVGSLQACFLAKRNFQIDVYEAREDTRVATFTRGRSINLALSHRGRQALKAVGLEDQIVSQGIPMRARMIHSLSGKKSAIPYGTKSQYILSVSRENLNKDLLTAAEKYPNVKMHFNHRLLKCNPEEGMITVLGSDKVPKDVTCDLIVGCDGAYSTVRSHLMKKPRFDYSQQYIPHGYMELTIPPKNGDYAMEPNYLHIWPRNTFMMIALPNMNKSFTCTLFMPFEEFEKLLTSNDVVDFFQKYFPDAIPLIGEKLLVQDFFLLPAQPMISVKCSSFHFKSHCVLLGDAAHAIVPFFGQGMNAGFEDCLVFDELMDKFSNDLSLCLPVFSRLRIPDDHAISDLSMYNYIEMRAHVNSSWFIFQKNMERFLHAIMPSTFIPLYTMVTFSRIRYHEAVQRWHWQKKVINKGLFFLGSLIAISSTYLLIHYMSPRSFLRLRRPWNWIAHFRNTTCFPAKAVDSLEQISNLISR

[2] = target: T1, Kynurenine 3-monooxygenase; assay: Inhibition of full length human GST-tagged KMO expressed in baculovirus infected Sf9 insect cell membranes using kynurenine as substrate measured after 1 hr by RapidFire high-throughput mass spectrometric analysis
Target sequence in this assay (O15229 whole entry): as the sequence (O15229 whole entry, looked up) above

serum albumin = serum albumin (Homo sapiens, UniProt P02768); assay: Binding affinity to human serum albumin by HPLC analysis; format: ADME; conditions: read-out: PB (converted)
Chain of serum albumin (P02768 whole entry): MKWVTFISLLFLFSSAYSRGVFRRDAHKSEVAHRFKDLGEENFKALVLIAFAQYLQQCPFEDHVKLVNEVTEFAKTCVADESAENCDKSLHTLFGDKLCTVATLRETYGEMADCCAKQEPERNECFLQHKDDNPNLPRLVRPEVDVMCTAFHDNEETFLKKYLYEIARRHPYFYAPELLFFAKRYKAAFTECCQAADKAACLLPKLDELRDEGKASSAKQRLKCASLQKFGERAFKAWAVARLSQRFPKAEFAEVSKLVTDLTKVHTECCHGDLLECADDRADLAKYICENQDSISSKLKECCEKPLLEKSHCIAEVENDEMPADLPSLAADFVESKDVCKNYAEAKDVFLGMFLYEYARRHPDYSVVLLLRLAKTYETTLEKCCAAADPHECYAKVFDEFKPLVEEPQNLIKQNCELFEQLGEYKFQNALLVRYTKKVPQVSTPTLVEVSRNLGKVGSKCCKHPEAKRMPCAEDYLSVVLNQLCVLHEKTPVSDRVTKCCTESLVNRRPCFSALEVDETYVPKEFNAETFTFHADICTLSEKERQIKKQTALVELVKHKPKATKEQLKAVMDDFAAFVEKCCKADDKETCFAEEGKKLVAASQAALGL

[3] = Permeability of the compound by PAMPA; format: physicochemical; conditions: read-out: permeability
[4] = Lipophilicity, log D of the compound at pH 7.4 by RP-HPLC analysis; format: physicochemical; conditions: buffer
[5] = Protein binding in human plasma; format: ADME, cell-free; conditions: read-out: PPB (converted)
[6] = target: T1, Kynurenine 3-monooxygenase; remark: listed apart in the source
Target sequence in this assay (O15229 whole entry): as the sequence (O15229 whole entry, looked up) above

[7] = Drug uptake in plasma of rat model of cerulean-induced acute pancreatitis at 20 mg/kg, iv administered as bolus dose followed by 2.2 mg/kg/hr, iv infusion for 5 hrs; format: ADME, organism-based
[8] = Protein binding in Han-Wistar rat plasma at 1 mg/kg, iv by LC-MS/MS analysis; format: ADME, organism-based; conditions: read-out: PPB (converted)
[9] = Half life in Han-Wistar rat at 1 mg/kg, iv by LC-MS/MS analysis; format: ADME, organism-based; conditions: in vivo
[10] = Clearance in Han-Wistar rat blood at 1 mg/kg, iv by LC-MS/MS analysis; format: ADME, organism-based; conditions: whole blood
[11] = Volume of distribution at steady state in Han-Wistar rat at 1 mg/kg, iv by LC-MS/MS analysis; format: ADME, organism-based; conditions: in vivo, read-out: Vdss
[12] = Half life of the compound at pH 6 under oxidative condition; format: physicochemical
[13] = Stability of the compound in presence of light measured after 12 hrs; format: physicochemical; conditions: read-out: Stability
[14] = target: Kynurenine 3-monooxygenase (Rattus norvegicus, UniProt O88867); assay: Inhibition of rat KMO expressed in HEK293 cells using kynurenine as substrate measured after 20 hrs by LC-MS/MS analysis; format: cell-based; conditions: read-out: Ki(app)
Chain of Kynurenine 3-monooxygenase (Rattus norvegicus, UniProt O88867) (O88867 whole entry, the tested form may be a part): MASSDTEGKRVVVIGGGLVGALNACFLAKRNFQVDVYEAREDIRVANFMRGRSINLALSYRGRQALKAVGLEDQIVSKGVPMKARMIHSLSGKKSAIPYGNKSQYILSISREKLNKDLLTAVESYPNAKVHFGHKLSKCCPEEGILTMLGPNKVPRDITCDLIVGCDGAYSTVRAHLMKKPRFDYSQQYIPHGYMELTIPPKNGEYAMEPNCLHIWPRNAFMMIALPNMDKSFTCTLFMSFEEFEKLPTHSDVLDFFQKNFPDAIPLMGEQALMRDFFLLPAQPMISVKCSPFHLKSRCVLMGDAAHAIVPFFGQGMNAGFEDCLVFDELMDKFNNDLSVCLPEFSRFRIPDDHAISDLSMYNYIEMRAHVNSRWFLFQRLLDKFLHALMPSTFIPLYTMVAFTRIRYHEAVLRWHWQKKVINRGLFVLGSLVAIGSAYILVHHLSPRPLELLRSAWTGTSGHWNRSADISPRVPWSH

Plasma [15] = assay: (§1) Unbound fraction in rat plasma at […], iv administered as bolus dose followed by […], iv infusion for 3 hrs; format: ADME, organism-based; conditions: in vivo
Plasma [16] = assay: as §1; format: ADME, organism-based; conditions: in vivo; remark: listed apart in the source
Plasma [17] = assay: as §1; format: ADME, organism-based; conditions: in vivo; remark: listed apart in the source
[18] = Half life in Beagle dog at 1 mg/kg, iv by LC-MS/MS analysis; format: ADME, organism-based, Canis lupus familiaris; conditions: in vivo
[19] = Clearance in Beagle dog blood at 1 mg/kg, iv by LC-MS/MS analysis; format: ADME, organism-based, Canis lupus familiaris; conditions: whole blood
[20] = Volume of distribution in Beagle dog at 1 mg/kg, iv by LC-MS/MS analysis; format: ADME, organism-based, Canis lupus familiaris; conditions: in vivo
Homo sapiens = organism: Homo sapiens; assay: Inhibition of IDO (unknown origin)
[21] = target: Tryptophan 2,3-dioxygenase (Homo sapiens) (UniProt P48775); assay: Inhibition of TDO (unknown origin)
Chain of Tryptophan 2,3-dioxygenase (Homo sapiens) (P48775 whole entry, looked up): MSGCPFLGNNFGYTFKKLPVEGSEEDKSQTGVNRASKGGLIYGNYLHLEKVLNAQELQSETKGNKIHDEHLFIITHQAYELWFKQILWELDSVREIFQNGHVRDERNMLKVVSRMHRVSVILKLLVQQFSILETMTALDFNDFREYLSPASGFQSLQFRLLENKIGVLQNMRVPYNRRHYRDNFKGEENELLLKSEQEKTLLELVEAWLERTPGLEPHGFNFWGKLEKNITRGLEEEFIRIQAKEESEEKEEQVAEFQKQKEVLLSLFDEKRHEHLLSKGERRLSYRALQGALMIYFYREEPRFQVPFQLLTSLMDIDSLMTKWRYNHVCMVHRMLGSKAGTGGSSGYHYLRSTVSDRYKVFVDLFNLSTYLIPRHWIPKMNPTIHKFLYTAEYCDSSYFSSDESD

[22] = target: T2, Kynurenine--oxoglutarate transaminase 1 (Homo sapiens) (UniProt Q16773); assay: Inhibition of KAT1 (unknown origin)
T2 sequence (whole entry): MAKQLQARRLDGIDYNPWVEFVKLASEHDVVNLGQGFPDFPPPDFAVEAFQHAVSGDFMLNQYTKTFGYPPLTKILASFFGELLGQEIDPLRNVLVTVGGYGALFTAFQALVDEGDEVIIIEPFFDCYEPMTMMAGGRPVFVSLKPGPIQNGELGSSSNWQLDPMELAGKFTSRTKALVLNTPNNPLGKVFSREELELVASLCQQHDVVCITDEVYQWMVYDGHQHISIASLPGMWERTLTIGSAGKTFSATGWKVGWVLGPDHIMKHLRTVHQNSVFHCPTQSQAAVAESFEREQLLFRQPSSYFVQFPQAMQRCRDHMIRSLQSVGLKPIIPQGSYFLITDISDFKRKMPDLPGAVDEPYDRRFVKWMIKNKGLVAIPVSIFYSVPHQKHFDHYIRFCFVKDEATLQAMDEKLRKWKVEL

[23] = target: T3, Kynureninase (Homo sapiens) (UniProt Q16719); assay: Inhibition of kynureninase (unknown origin)
T3 sequence (whole entry): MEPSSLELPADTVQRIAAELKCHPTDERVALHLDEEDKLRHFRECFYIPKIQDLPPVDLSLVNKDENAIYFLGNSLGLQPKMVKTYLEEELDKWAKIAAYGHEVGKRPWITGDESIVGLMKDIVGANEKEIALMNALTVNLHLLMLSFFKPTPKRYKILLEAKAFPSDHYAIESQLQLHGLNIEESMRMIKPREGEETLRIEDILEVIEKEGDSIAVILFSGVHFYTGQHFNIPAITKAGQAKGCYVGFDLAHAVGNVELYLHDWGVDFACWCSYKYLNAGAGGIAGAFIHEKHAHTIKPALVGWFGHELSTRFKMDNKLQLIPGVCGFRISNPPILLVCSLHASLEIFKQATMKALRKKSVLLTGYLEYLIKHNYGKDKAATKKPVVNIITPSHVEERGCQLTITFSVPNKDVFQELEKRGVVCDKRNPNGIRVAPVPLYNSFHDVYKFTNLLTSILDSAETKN

[24] = target: Kynurenine/alpha-aminoadipate aminotransferase, mitochondrial (Homo sapiens) (UniProt Q8N5Z0); assay: Inhibition of KAT2 (unknown origin)
Chain of Kynurenine/alpha-aminoadipate aminotransferase, mitochondrial (Homo sapiens) (Q8N5Z0 30-425 limits assumed): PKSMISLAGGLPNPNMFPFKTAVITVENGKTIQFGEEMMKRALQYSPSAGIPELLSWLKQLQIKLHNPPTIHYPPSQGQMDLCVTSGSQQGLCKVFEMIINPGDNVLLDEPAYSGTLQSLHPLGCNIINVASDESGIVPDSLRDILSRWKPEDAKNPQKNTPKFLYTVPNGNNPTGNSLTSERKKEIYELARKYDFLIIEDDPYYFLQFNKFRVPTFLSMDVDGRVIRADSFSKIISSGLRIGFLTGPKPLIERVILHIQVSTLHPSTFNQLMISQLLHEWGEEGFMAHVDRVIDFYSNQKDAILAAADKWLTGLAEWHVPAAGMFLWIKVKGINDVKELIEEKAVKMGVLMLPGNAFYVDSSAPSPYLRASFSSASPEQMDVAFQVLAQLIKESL

Rattus norvegicus [25] = assay: (§2) Effect on circulating tryptophan levels in rat plasma at […], iv administered as bolus dose followed by […], iv infusion for 3 hrs; format: functional, organism-based
Rattus norvegicus [26] = assay: as §2; format: functional, organism-based; remark: listed apart in the source
Rattus norvegicus [27] = assay: as §2; format: functional, organism-based; remark: listed apart in the source
Rattus norvegicus [28] = assay: In vivo inhibition of KMO in iv dosed rat assessed as decrease in circulating 3-hydroxykynurenine levels in plasma measured post last dose; format: functional, organism-based
Rattus norvegicus [29] = assay: (§3) In vivo inhibition of KMO in rat assessed as increase in kynurenine levels in plasma at […], iv administered as bolus followed by […], iv infusion for 3 hrs; format: functional, organism-based
Rattus norvegicus [30] = assay: as §3; format: functional, organism-based; remark: listed apart in the source
Rattus norvegicus [31] = assay: as §3; format: functional, organism-based; remark: listed apart in the source
Rattus norvegicus [32] = assay: Increase in kynurenic acid levels in iv dosed rat plasma measured post last dose; format: functional, organism-based
Rattus norvegicus [33] = assay: Increase in anthranilic acid levels in iv dosed rat plasma measured post last dose; format: functional, organism-based
Rattus norvegicus [34] = assay: Decrease in 3-hydroxykynurenine level in plasma of rat model of cerulean-induced acute pancreatitis at 20 mg/kg, iv administered as bolus dose followed by 2.2 mg/kg/hr 5 hrs iv infusion; format: functional, organism-based
Rattus norvegicus [35] = assay: Increase in kynurenine level in plasma of rat model of cerulean-induced acute pancreatitis at 20 mg/kg, iv administered as bolus dose followed by 2.2 mg/kg/hr 5 hrs iv infusion; format: functional, organism-based
Rattus norvegicus [36] = assay: Organoprotective activity in lung of acute pancreatitis rat model assessed as decrease in levels of protein leak in bronchoalveolar lavage fluid at 20 mg/kg, iv as bolus dose administered 1 hr post acute pancreatitis induction followed by drug administration at 2.2 mg/kg/hr, iv as infusion over 5 hrs; format: functional, organism-based
Rattus norvegicus [37] = assay: Organoprotective activity in lung of acute pancreatitis rat model assessed as alveolar-epithelial thickening at 20 mg/kg, iv as bolus dose administered 1 hr post acute pancreatitis induction followed by drug administration at 2.2 mg/kg/hr, iv as infusion over 5 hrs by haematoxylin/eosin stain based light microscopic analysis; format: functional, organism-based
Rattus norvegicus [38] = assay: Organoprotective activity in lung of acute pancreatitis rat model assessed as inflammatory infiltrates at 20 mg/kg, iv as bolus dose administered 1 hr post acute pancreatitis induction followed by drug administration at 2.2 mg/kg/hr, iv as infusion over 5 hrs by haematoxylin/eosin stain based light microscopic analysis; format: functional, organism-based
Rattus norvegicus [39] = assay: Organoprotective activity against acute pancreatitis-induced kidney damage in rat assessed as decrease in plasma creatinine levels at 20 mg/kg, iv as bolus dose administered 1 hr post acute pancreatitis induction followed by drug administration at 2.2 mg/kg/hr, iv as infusion over 5 hrs; format: functional, organism-based
Rattus norvegicus [40] = assay: Organoprotective activity in kidney of acute pancreatitis […] assessed as reduction in apoptotic cell count in the outer medullary stripe at 20 mg/kg, iv as bolus dose administered 1 hr post acute pancreatitis induction followed by drug administration at 2.2 mg/kg/hr, iv as infusion over 5 hrs by TUNEL staining analysis; format: functional, organism-based
Rattus norvegicus [41] = assay: Organoprotective activity against acute pancreatitis-induced pancreatic injury in rat assessed as decrease in serum amylase levels at 20 mg/kg, iv as bolus dose administered 1 hr post acute pancreatitis induction followed by drug administration at 2.2 mg/kg/hr, iv as infusion over 5 hrs; format: functional, organism-based
Rattus norvegicus [42] = assay: Protection against multiple organ dysfunction syndrome in acute pancreatitis-induced rat assessed as decrease in stress response plasma glucose levels at 20 mg/kg, iv as bolus dose administered 1 hr post acute pancreatitis induction followed by drug administration at 2.2 mg/kg/hr, iv as infusion over 5 hrs; format: functional, organism-based
[43] = target: T1, Kynurenine 3-monooxygenase; remark: listed apart in the source
Target sequence in this assay (O15229 whole entry, looked up): as the sequence (O15229 whole entry, looked up) above

[44] = Solubility of the compound in saline measured after 24 hrs; format: physicochemical

C[C@@H](Oc1cc2oc(=O)n(CCC(=O)O)c2cc1Cl)c1ccccn1
T1/2 [1]: 2 h

O=C(O)CCn1c(=O)oc2cc(OCc3ccccn3)c(Cl)cc21
T1/2 [1]: 0.5 h

C[C@@H](Oc1cc2oc(=O)n(CCC(=O)O)c2cc1Cl)c1cccnn1
pIC50 [2]: 8.90 | fraction unbound (serum albumin): 0.409 | Papp [3]: < 3 nm/s | logD [4]: 0.83 | fraction unbound [5]: 0.319 | pIC50 [6]: 6.20

C[C@@H](Oc1cc2onc(CCC(=O)O)c2cc1Cl)c1ccccn1.NCCO
concentration at 5 h [7]: 600 µM

C[C@@H](Oc1cc2onc(CCC(=O)O)c2cc1Cl)c1ccccn1 [GSK-065]
fraction unbound [8]: 0.022 | half-life [9]: 6.6 h | clearance [10]: 0.048 L/h/kg | Vd [11]: 0.42 L/kg | half-life [12]: > 1000 h | remaining at 12 h [13]: 97.7% | pKi [14]: 7.35 | Cp(f) (Plasma [15]): 0.003 µM | Cp(f) (Plasma [16]): 0.05 µM | Cp(f) (Plasma [17]): 0.405 µM | half-life [18]: 5.8 h | clearance [19]: 0.0558 L/h/kg | Vd [20]: 0.36 L/kg

C[C@@H](Oc1cc2onc(CCC(=O)O)c2cc1Cl)c1ccccn1
inhibition (Homo sapiens): inactive | inhibition [21]: inactive | inhibition [22]: inactive | inhibition [23]: inactive | inhibition [24]: inactive | Activity (Rattus norvegicus [25]): inactive | Activity (Rattus norvegicus [26]): inactive | Activity (Rattus norvegicus [27]): inactive | inhibition (Rattus norvegicus [28]): Dose-dependent effect | inhibition (Rattus norvegicus [29]): Active | inhibition (Rattus norvegicus [30]): Active | inhibition (Rattus norvegicus [31]): Active | Activity (Rattus norvegicus [32]): Dose-dependent effect | Activity (Rattus norvegicus [33]): Dose-dependent effect | Activity (Rattus norvegicus [34]): Active | Activity (Rattus norvegicus [35]): Active | Activity (Rattus norvegicus [36]): Active | Activity (Rattus norvegicus [37]): Active | Activity (Rattus norvegicus [38]): Active | Activity (Rattus norvegicus [39]): Active | Activity (Rattus norvegicus [40]): Active | Activity (Rattus norvegicus [41]): Active | Activity (Rattus norvegicus [42]): Active | T1/2 [43]: 10 h

NC(CO)(CO)CO.O=C(O)CCn1c(=O)oc2cc(OC3CC3)c(Cl)cc21
pIC50 [2]: 8.50 | fraction unbound (serum albumin): 0.057 | Papp [3]: 15 nm/s | logD [4]: 1.64 | fraction unbound [5]: 0.031 | solubility at 24 h [44]: > 2.4 mg/mL | pIC50 [6]: 5.90

NC(CO)(CO)CO.O=C(O)CCn1c(=O)oc2cc(OCC3CC3)c(Cl)cc21
pIC50 [2]: 8.00 | fraction unbound (serum albumin): 0.038 | Papp [3]: 19 nm/s | logD [4]: 2.09 | fraction unbound [5]: 0.04 | solubility at 24 h [44]: > 2.06 mg/mL | pIC50 [6]: 5.80
